Test results: patent publication US20250019377A1 (JACOBIO PHARMACEUTICALS CO., LTD, priority 2021, published 2025)
Where two headings read alike, the source gives them in different places.

Key:
K-Ras G12V [1] = molecular target: T1, K-Ras G12V (Homo sapiens, UniProt P01116, G12V); assay: SOS1 catalyzed nucleotide exchange assay (GDP form K-Ras), K-Ras G12V; settings: read-out: K-Ras G12V GDP Biochemical Activity (IC50)
K-Ras G12C [2] = molecular target: T2, K-Ras G12C (Homo sapiens, UniProt P01116, G12C); assay: SOS1 catalyzed nucleotide exchange assay (GDP form K-Ras), K-Ras G12C; settings: read-out: K-Ras G12C GDP Biochemical Activity (IC50)
T2 sequence (P01116 1-169 isoform P01116-2 G12C): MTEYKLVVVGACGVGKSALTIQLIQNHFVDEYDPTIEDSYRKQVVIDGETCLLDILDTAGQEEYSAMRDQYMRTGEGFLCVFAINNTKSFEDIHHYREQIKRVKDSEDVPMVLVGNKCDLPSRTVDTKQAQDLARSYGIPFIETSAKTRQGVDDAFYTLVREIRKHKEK

K-Ras G12A [3] = molecular target: T3, K-Ras G12A (Homo sapiens, UniProt P01116, G12A); assay: SOS1 catalyzed nucleotide exchange assay (GDP form K-Ras), K-Ras G12A; settings: read-out: K-Ras G12A GDP Biochemical Activity (IC50)
T3 sequence (P01116 1-169 isoform P01116-2 G12A): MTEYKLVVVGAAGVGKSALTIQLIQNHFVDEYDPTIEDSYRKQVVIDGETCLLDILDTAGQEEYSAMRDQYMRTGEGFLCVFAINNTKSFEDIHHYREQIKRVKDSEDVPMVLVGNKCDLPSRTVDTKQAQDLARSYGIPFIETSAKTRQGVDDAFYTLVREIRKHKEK

K-Ras G12R [4] = molecular target: T4, K-Ras G12R (Homo sapiens, UniProt P01116, G12R); assay: SOS1 catalyzed nucleotide exchange assay (GDP form K-Ras), K-Ras G12R; settings: read-out: K-Ras G12R GDP Biochemical Activity (IC50)
T4 sequence (P01116 1-169 isoform P01116-2 G12R): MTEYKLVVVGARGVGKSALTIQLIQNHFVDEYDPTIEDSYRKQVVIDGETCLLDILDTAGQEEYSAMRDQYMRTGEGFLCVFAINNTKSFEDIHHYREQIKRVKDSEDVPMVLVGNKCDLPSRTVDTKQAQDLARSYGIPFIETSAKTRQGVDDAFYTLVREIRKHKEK

K-Ras Q61H [5] = molecular target: T5, K-Ras Q61H (Homo sapiens, UniProt P01116, Q61H); assay: SOS1 catalyzed nucleotide exchange assay (GDP form K-Ras), K-Ras Q61H; settings: read-out: K-Ras Q61H GDP Biochemical Activity (IC50)
T5 sequence (P01116 1-169 isoform P01116-2 Q61H): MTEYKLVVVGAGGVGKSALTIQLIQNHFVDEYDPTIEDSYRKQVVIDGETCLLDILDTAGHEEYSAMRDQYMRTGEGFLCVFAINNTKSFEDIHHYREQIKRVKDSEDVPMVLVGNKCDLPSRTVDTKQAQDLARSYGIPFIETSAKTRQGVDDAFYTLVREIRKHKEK

K-Ras WT [6] = molecular target: T6, K-Ras WT (Homo sapiens, UniProt P01116); assay: SOS1 catalyzed nucleotide exchange assay (GDP form K-Ras), K-Ras WT; settings: read-out: K-Ras WT GDP Biochemical Activity (IC50)
T6 sequence (P01116 1-169 isoform P01116-2): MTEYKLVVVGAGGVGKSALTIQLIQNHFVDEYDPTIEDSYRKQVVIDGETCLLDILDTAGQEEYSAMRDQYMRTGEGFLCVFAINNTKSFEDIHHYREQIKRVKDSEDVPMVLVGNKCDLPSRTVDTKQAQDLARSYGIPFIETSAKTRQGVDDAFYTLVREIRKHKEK

K-Ras G12D [7] = molecular target: T7, K-Ras G12D (Homo sapiens, UniProt P01116, G12D)
T7 sequence (P01116 1-169 isoform P01116-2 G12D): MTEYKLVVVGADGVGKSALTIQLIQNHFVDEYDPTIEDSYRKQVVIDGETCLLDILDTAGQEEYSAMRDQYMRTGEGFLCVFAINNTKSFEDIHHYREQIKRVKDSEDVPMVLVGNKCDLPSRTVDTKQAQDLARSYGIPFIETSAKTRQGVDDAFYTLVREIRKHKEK

K-Ras G13D [8] = molecular target: T8, K-Ras G13D (Homo sapiens, UniProt P01116, G13D)
T8 sequence (P01116 1-169 isoform P01116-2 G13D): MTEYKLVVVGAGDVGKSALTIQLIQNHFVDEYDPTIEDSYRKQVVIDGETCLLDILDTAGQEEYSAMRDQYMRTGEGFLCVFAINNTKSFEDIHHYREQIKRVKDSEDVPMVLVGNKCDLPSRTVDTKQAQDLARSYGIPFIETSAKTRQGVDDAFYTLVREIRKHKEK

K-Ras WT [9] = molecular target: T6, K-Ras WT; assay: GTP-K-Ras and cRAF interaction assay (GppNp-K-Ras), K-Ras WT; settings: read-out: K-Ras WT GppNp Biochemical Activity (IC50)
K-Ras G12D [10] = molecular target: T7, K-Ras G12D; assay: GTP-K-Ras and cRAF interaction assay (GppNp-K-Ras), K-Ras G12D; settings: read-out: K-Ras G12D GppNp Biochemical Activity (IC50)
K-Ras G12V [11] = molecular target: T1, K-Ras G12V; assay: GTP-K-Ras and cRAF interaction assay (GppNp-K-Ras), K-Ras G12V; settings: read-out: K-Ras G12V GppNp Biochemical Activity (IC50)
K-Ras G12C [12] = molecular target: T2, K-Ras G12C; assay: GTP-K-Ras and cRAF interaction assay (GppNp-K-Ras), K-Ras G12C; settings: read-out: K-Ras G12C GppNp Biochemical Activity (IC50)
K-Ras G13D [13] = molecular target: T8, K-Ras G13D; assay: GTP-K-Ras and cRAF interaction assay (GppNp-K-Ras), K-Ras G13D; settings: read-out: K-Ras G13D GppNp Biochemical Activity (IC50)
K-Ras G12A [14] = molecular target: T3, K-Ras G12A; assay: GTP-K-Ras and cRAF interaction assay (GppNp-K-Ras), K-Ras G12A; settings: read-out: K-Ras G12A GppNp Biochemical Activity (IC50)
K-Ras G12R [15] = molecular target: T4, K-Ras G12R; assay: GTP-K-Ras and cRAF interaction assay (GppNp-K-Ras), K-Ras G12R; settings: read-out: K-Ras G12R GppNp Biochemical Activity (IC50)
K-Ras Q61H [16] = molecular target: T5, K-Ras Q61H; assay: GTP-K-Ras and cRAF interaction assay (GppNp-K-Ras), K-Ras Q61H; settings: read-out: K-Ras Q61H GppNp Biochemical Activity (IC50)
[17] = tested on: p-ERK in AGS cells (K-Ras G12D); assay: Phospho-ERK1/2(THR202/TYR204) HTRF assay, AGS; assay type: cell-based; settings: Homo sapiens, 2 h, 2 hours incubation
[18] = tested on: p-ERK in SW620 cells (K-Ras G12V); assay: Phospho-ERK1/2(THR202/TYR204) HTRF assay, SW620; assay type: cell-based; settings: Homo sapiens, SW-620, 2 h, 2 hours incubation
Experimental: (§1) p-ERK (MAPK pathway) inhibition activity of each of compounds in a variety of K-Ras mutant and K-Ras WT cell lines indicated in Table 23 was evaluated.
(§2) Each of cells in culture medium was seeded in 96-well plates at density indicated in Table 23 and then put in a cell incubator to incubate overnight. The next day, the culture medium was removed and the compound diluted in assay medium was added in each well. […] 10 μL of cell lysates from the 96-well plates were transferred to a 384-well plate (Greiner) containing 2.5 μL/well HTRF® pre-mixed antibodies (Cisbio 64AERPEH). The plate was incubated 4 hours at 25° C. and then read HTRF signals on Tecan Spark multimode microplate reader. The data were analyzed using a 4-parameter logistic model to calculate IC50 values.

[19] = tested on: p-ERK in NCI-H358 cells (K-Ras G12C); assay: Phospho-ERK1/2(THR202/TYR204) HTRF assay, NCI-H358; assay type: cell-based; settings: Homo sapiens, 2 hours incubation
Experimental: as §1, §2

[20] = tested on: p-ERK in TCC-PAN2 cells (K-Ras G12R); assay: Phospho-ERK1/2(THR202/TYR204) HTRF assay, TCC-PAN2; assay type: cell-based; settings: 2 hours incubation
Experimental: as §1, §2

[21] = tested on: p-ERK in NCI-H460 cells (K-Ras Q61H); assay: Phospho-ERK1/2(THR202/TYR204) HTRF assay, NCI-H460; assay type: cell-based; settings: Homo sapiens, 2 hours incubation
Experimental: (§3) p-ERK (MAPK pathway) inhibition activity of each of compounds in a variety of K-Ras mutant and K-Ras WT cell lines indicated in Table 23 was evaluated. MKN-1 with K-Ras WT amplification is also a K-Ras dependent cell line.
as §2

[22] = tested on: p-ERK in MKN-1 cells (K-Ras WT amplification); assay: Phospho-ERK1/2(THR202/TYR204) HTRF assay, MKN-1; assay type: cell-based; settings: Homo sapiens; MKN-1, K-Ras WT, 2 hours incubation
Experimental: as §3, §2

AGS cells (K-Ras G12D) = assay: 2D cell growth inhibition assay, AGS; assay type: cell-based; settings: Homo sapiens, 144 h, 6 days, absolute IC50
Experimental: (§4) The cell growth inhibition activity of each of compounds was tested by performing cell growth inhibition assays on a variety of K-Ras mutant and K-Ras WT cell lines indicated in Table 25.
(§5) Each of cells in culture medium was plated in TC-treated 96-well plates at a density indicated in Table 25 and incubated in a cell incubator overnight. The next day, each of compounds was diluted in culture medium and added to the plates. After 6 days incubation in cell incubator, the cell viability was detected by CellTiter-Glo® Cell Viability Assay kit (Promega).

[23] = tested on: AsPC-1 cells (K-Ras G12D); assay: 2D cell growth inhibition assay, AsPC-1; assay type: cell-based; settings: Homo sapiens, ASPC1, 144 h, AsPC-1, K-Ras G12D, 6 days, absolute IC50
Experimental: as §4, §5

SW620 cells (K-Ras G12V) = assay: 2D cell growth inhibition assay, SW620; assay type: cell-based; settings: Homo sapiens, SW-620, 144 h, 6 days, absolute IC50
Experimental: as §4, §5

[24] = tested on: TCC-PAN2 cells (K-Ras G12R); assay: 3D cell growth inhibition assay, TCC-PAN2; assay type: cell-based; settings: 144 h, 6 days, absolute IC50
Experimental: as §4
(§6) Each of cells in culture medium was plated in ultra-low attachment-coated 96-well plates at a density indicated in Table 25 and incubated in a cell incubator overnight. The next day, each of compounds was diluted in culture medium and added to the plates. After 6 days incubation in cell incubator, the cell viability was detected by CellTiter-Glo® 3D Cell Viability Assay kit (Promega).

[25] = tested on: NCI-H460 cells (K-Ras Q61H); assay: 3D cell growth inhibition assay, NCI-H460; assay type: cell-based; settings: Homo sapiens, 144 h, 6 days, absolute IC50
Experimental: as §4, §6

MKN-1 cells (K-Ras WT) = assay: 3D cell growth inhibition assay, MKN-1; assay type: cell-based; settings: Homo sapiens, 144 h, MKN-1, K-Ras WT, 6 days, absolute IC50
Experimental: as §4, §6

[26] = tested on: p-ERK in NCI-H747 cells (K-Ras G13D)
Experimental: as §1, §2

[27] = tested on: Capan-2 cells (K-Ras G12V)
Experimental: as §4, §6

[28] = tested on: NCI-H358 cells (K-Ras G12C)
Experimental: as §6

[29] = tested on: NCI-H747 cells (K-Ras G13D)
Experimental: as §4, §6

[30] = tested on: RERF-LC-Ad1 cells (K-Ras G12A)
Experimental: as §6

T1 sequence (P01116 1-169 isoform P01116-2 G12V): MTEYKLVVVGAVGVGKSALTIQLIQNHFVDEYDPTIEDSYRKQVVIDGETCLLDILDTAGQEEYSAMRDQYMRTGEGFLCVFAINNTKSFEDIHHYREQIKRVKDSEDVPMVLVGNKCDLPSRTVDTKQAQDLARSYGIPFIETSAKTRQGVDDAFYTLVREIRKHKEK

Compound | IC50 (K-Ras G12V [1]) [nM] | IC50 (K-Ras G12C [2]) [nM] | IC50 (K-Ras G12A [3]) [nM] | IC50 (K-Ras G12R [4]) [nM] | IC50 (K-Ras Q61H [5]) [nM] | IC50 (K-Ras WT [6]) [nM] | IC50 (K-Ras G12D [7]) [nM] | IC50 (K-Ras G13D [8]) [nM] | IC50 (K-Ras WT [9]) [nM] | IC50 (K-Ras G12D [10]) [nM] | IC50 (K-Ras G12V [11]) [nM] | IC50 (K-Ras G12C [12]) [nM] | IC50 (K-Ras G13D [13]) [nM] | IC50 (K-Ras G12A [14]) [nM] | IC50 (K-Ras G12R [15]) [nM] | IC50 (K-Ras Q61H [16]) [nM] | further results
C#Cc1c(F)ccc2cc(O)cc(-c3c(Cl)cc4c(N5CCCOCC5)nc(OC[C@@]56CCCN5C[C@H](F)C6)nc4c3F)c12 (atropisomer, axis not shown; (M)) [Compound 19B, (M)-4-(6-chloro-8-fluoro-2-(((2R,7aS)-2-fluorotetrahydro-1H-pyrrolizin-7a(5H)-yl)methoxy)-4-(1,4-oxazepan-4-yl)quinazolin-7-yl)-5-ethynyl-6-fluoronaphthalen-2-ol trifluoroacetic acid] | 5.27 | 3.69 | 15.7 | 3.17 | 6.65 | 8.72 | 5.62 | 14.4 | 183 | 57 | 136 | 302 | 7.88 | 493 | 95.9 | 212 | 
C#Cc1c(F)ccc2cc(O)cc(-c3ncc4c(N5CCCOC[C@H]5C)nc(OC[C@@]56CCCN5C[C@H](F)C6)nc4c3F)c12 (single isomer, unassigned) [Compound 16B] | 0.89 | 1.12 | 1.64 | 0.994 | 1.15 | 1.72 | 0.576 | 2.22 | 21.5 | 7.46 | 10.4 | 58.3 | 2.3 | 98.7 | 15.7 | 38.5 | IC50 [17]: 1.44 nM; IC50 [18]: 5.07 nM; IC50 [19]: 2.1 nM; IC50 [20]: 97.6 nM; IC50 [21]: 18.1 nM; IC50 [22]: 2.97 nM; IC50 (AGS cells (K-Ras G12D)): 5.82 nM; IC50 [23]: 53 nM; IC50 (SW620 cells (K-Ras G12V)): 8.77 nM; IC50 [24]: 319 nM; IC50 [25]: 296 nM; IC50 (MKN-1 cells (K-Ras WT)): 20.9 nM; IC50 [26]: 3.56 nM; IC50 [27]: 121 nM; IC50 [28]: 13.7 nM; IC50 [29]: 21.6 nM; IC50 [30]: 30.9 nM
